Laboratory results as given in patent publication US20240124545A1, “COMPOSITIONS AND METHODS RELATING TO THE TREATMENT OF DISEASES” (ILC THERAPEUTICS LIMITED, priority 2021, published 2024).
“And” between values parts separate entries of the source, which are not always exact repeats. Equal entries are not always repeated.

Tests used:
HeLa-CD4-βgal cells [1] = conditions: human
HEp-2 cells = experiment: XTT viability (cytotoxicity) assay, uninfected HEp-2 cells; conditions: 1 μM; 72 hours
HeLa-CD4-βgal cells [2] = experiment: XTT viability (cytotoxicity) assay, uninfected HeLa-CD4-βgal cells (Experiment 4); conditions: 1 μM; 48 hours
HeLa-CD4-βgal cells [3] = experiment: XTT viability (cytotoxicity) assay, uninfected HeLa-CD4-βgal cells (Experiment 5); conditions: 10 μM

**Q.** Which “inhibition by viability control in XTT cytotoxicity assays” value (HeLa-CD4-βgal cells [1]) does the source give for `CC[C@H]1CN2CCc3cc(OC)c(OC)cc3[C@@H]2C[C@@H]1C[C@H]1NCCc2cc(OC)c(OC)cc21` [Emetine] here?
**A.** greater than 85%

**Q.** And the “inhibition of cell viability by cytotoxic compound control” value (HeLa-CD4-βgal cells [1])?
**A.** greater than 90%

**Q.** And the “HEp-2 viability in the XTT assay (percentage values), controls” value (HEp-2 cells)?
**A.** 6.8 ± 1.1 % vehicle

**Q.** And the “Viability of HeLa-CD4-βgal cells in the XTT assay (percentage values), controls” value (HeLa-CD4-βgal cells [2])?
**A.** 10.0 ± 1.7%

**Q.** What about the “Viability of Uninfected HeLa-CD4-β gal Cells (% vehicle alone), controls” value (HeLa-CD4-βgal cells [3]; 48 hours) of the same compound?
**A.** 5.6 ± 0.7 % vehicle alone

**Q.** And the “Viability (A490), controls, HeLa-CD4-βgal cells” value (HeLa-CD4-βgal cells [3]; raw absorbance 490 nm)?
**A.** 0.213 and 0.203
